pIC50: −log10 of the molar value. *1 amine or outer side, *2 acyl side, *3 side chain or, on linkers, in order; H or OH if unused. Where a SMILES comes first, the peptide text is derived from it. Bridges are numbered along the chain shown (N, C = ends). Roman numbers before positions name the chains, in order. [ ]: non-standard residue; d: D form. Actinocin(1to9) = Cc1c2oc3c(C)ccc(C(=O)[*:2])c3nc-2c(C(=O)[*:1])c(N)c1=O; NMeV = CN[C@H](C(=O)O)C(C)C; Sar = CNCC(=O)O

The experiment has as its system A2780. In words: Cytotoxicity against human A2780 cells. In kind it is functional, cell-based.
Usually pIC50 stands for the negative decadic logarithm of the IC50, by convention in mol/L. `C=C(C)C(=O)O[C@H]1C[C@H](C)[C@@H](OC(C)=O)CC[C@@](C)(O)/C=C2/OC(=O)C(COC(C)=O)=C21` [GLAUCOLIDE M] showed a pIC50 of 5.48. The value for `C=C(C)C(=O)O[C@H]1C[C@H](C)[C@@H](OC(C)=O)CC[C@@]2(C)O[C@@H]2[C@H]2OC(=O)C(CO)=C12` [GLAUCOLIDE L] was 4.61; that for `Cc1c2oc3c(C)ccc(C(=O)N[C@@H]4C(=O)N[C@H](C(C)C)C(=O)N5CCC[C@H]5C(=O)N(C)CC(=O)N(C)[C@@H](C(C)C)C(=O)O[C@@H]4C)c3nc-2c(C(=O)N[C@@H]2C(=O)N[C@H](C(C)C)C(=O)N3CCC[C@H]3C(=O)N(C)CC(=O)N(C)[C@@H](C(C)C)C(=O)O[C@@H]2C)c(N)c1=O` [DACTINOMYCIN] (I: T[dV]P[Sar][NMeV] / II: T[dV]P[Sar][NMeV]; ester I:1-I:C, II:1-II:C; linker I:N-II:N via Actinocin(1to9)) was 9.10; that for `C=C(C)C(=O)O[C@H]1C[C@H](C)[C@@H](OC(C)=O)CC[C@@]2(C)O[C@@H]2[C@H]2OC(=O)C(COC(C)=O)=C12` [GLAUCOLIDE K] was 5.24.

These data come from ChEMBL document CHEMBL1141804, “Cytotoxic sesquiterpene lactones from Vernonia pachyclada from the Madagascar rainforest” (J Nat Prod, 2005).
